The source of these data is PMC8399443, “Synthesis, Biological Evaluation, and In Silico Modeling of N-Substituted Quinoxaline-2-Carboxamides” (Pharmaceuticals, 2021).

Usually MIC stands for the least concentration at which growth counts as inhibited. Usually IC50 stands for the concentration at which inhibition is half-maximal.

The subject of one assay is Mtb H37Ra. The experiment in a line: In vitro antimycobacterial activity, Microplate Alamar Blue Assay (MABA). It is filed as cell-based, Mycobacterium tuberculosis. As to conditions: for SI (selectivity index): IC50 HepG2 (µM)/MIC Mtb H37Ra (µM); for MIC: Mycobacterium tuberculosis, H37RA, read-out: MIC Mtb H37Ra; for MIC Mtb H37Ra: MABA, pH of testing medium 6.6. A general note: Alamar Blue is a resazurin reagent that responds to reducing activity.

The next assay relates to M. smegmatis. The experiment in a line: In vitro antimycobacterial activity, MABA. It is filed as cell-based, Mycobacterium smegmatis. The following applies: Mycolicibacterium smegmatis, read-out: MIC M. smeg.
For a further assay, the system named is M. aurum. Description: In vitro antimycobacterial activity, MABA. In kind it is cell-based, Mycobacterium aurum. As to conditions: Mycolicibacterium aurum, read-out: MIC M. aurum.
In another assay the test system is HepG2 cell line. Description: In vitro cytotoxicity, CellTiter 96 (MTS). It is filed as cell-based. The following applies: Homo sapiens, HepG2; cytotoxicity, 24 h incubation, CellTiter 96; read-out: HepG2 IC50.

Converted amounts (≈) assume the structure as drawn. “And” between values parts separate entries of the source, which are not always exact repeats. Equal entries are not always repeated. Where two headings read alike, the source gives them in different places.

Turning to `COc1cc(NC(=O)c2cnc3ccccc3n2)cc(OC)c1` [Compound 4], the “SI (selectivity index)” value in the assay with Mtb H37Ra was above 0.12. In addition, the minimum inhibitory concentration (MIC) was 62.5 µg/mL and 202 µM in the assay on Mtb H37Ra; at least 125 µg/mL in the assay with M. smegmatis (MABA); at least 125 µg/mL with M. aurum (MABA). Also, the concentration for half-maximal inhibition (IC50) in the assay on HepG2 cell line is above 25 µM.
As for `O=C(NCc1ccc(Br)cc1)c1cnc2ccccc2n1` [Compound 27], the “SI (selectivity index)” value with Mtb H37Ra is given as above 4.4. Moreover, the MIC in the assay with Mtb H37Ra is 7.81 µg/mL and 22.8 µM; with M. smegmatis (MABA), at least 500 µg/mL; in the assay with M. aurum (MABA), at least 500 µg/mL. In addition, the half-inhibitory concentration (IC50) in the assay with HepG2 cell line is above 100 µM.
For the compound `O=C(NCc1cccc(C(F)(F)F)c1)c1cnc2ccccc2n1` [Compound 28], in the assay with Mtb H37Ra, the “SI (selectivity index)” value is 4.12; the “MIC Mtb H37Ra” value is reported as 3.91 (28) µg/mL; the minimal inhibitory concentration (MIC) was 3.91 µg/mL and 11.8 µM. Moreover, in the assay on M. smegmatis (MABA), the MIC turned out to be 250 µg/mL. Further, the MIC in the assay with M. aurum (MABA) was at least 500 µg/mL. Also, the IC50 with HepG2 cell line was 48.6 µM.
In the case of `O=C(NCCc1ccccc1)c1cnc2ccccc2n1` [Compound 32, N-phenethylquinoxaline-2-carboxamide], the MIC in the assay on Mtb H37Ra, in the assay on M. smegmatis (MABA) and with M. aurum (MABA) was at least 500 µg/mL throughout. For the same compound, the IC50 in the assay on HepG2 cell line was above 1000 µM.
`O=C(NCc1ccc(F)cc1F)c1cnc2ccccc2n1` [Compound 22]: the minimum inhibitory concentration (MIC) with Mtb H37Ra, in the assay with M. smegmatis (MABA) and in the assay on M. aurum (MABA) was at least 500 µg/mL in each case. Besides, the half-inhibitory concentration (IC50) in the assay with HepG2 cell line was above 25 µM.
As to `NNC(=O)c1ccncc1` [INH, isoniazid, reference compound], the MIC in the assay on Mtb H37Ra was 0.25 µg/mL and 1.82 µM; in the assay with M. smegmatis, 15.6 µg/mL; with M. aurum it was 3.91 µg/mL (≈ 28.5 µM). In addition, in the assay with HepG2 cell line, the IC50 was above 1000 µM.
On to `COc1ccc(CNC(=O)c2cnc3ccccc3n2)cc1` [Compound 20], for which, in the assay with Mtb H37Ra, the “SI (selectivity index)” value amounted to 16.1; the “MIC Mtb H37Ra” value is recorded as 3.91 (20) µg/mL; the minimal inhibitory concentration (MIC) was 3.91 µg/mL and 11.8 µM. Besides, the minimal inhibitory concentration (MIC) in the assay on M. smegmatis was at least 250 µg/mL. Further, in the assay with M. aurum, the MIC worked out at 125 µg/mL (≈ 426 µM). Besides, the IC50 in the assay on HepG2 cell line was 209 µM.
As for `O=C(NCc1cccc(O)c1)c1cnc2ccccc2n1` [Compound 16], the “SI (selectivity index)” value in the assay on Mtb H37Ra came out at 5.40. In addition, the MIC is 31.2 µg/mL and 112 µM in the assay on Mtb H37Ra; 237 µM in the assay with M. smegmatis; 62.5 µg/mL in the assay with M. smegmatis (MABA); at least 500 µg/mL in the assay with M. aurum (MABA). Further, the half-inhibitory concentration (IC50) in the assay with HepG2 cell line is 601 µM.
In the case of `O=C(Nc1ccccc1F)c1cnc2ccccc2n1` [Compound 7], the MIC is at least 500 µg/mL with Mtb H37Ra, 234 µM with M. smegmatis, 62.5 µg/mL in the assay on M. smegmatis (MABA) and at least 500 µg/mL with M. aurum (MABA). Moreover, the half-maximal inhibitory concentration (IC50) with HepG2 cell line is above 100 µM.
Take `COc1ccc(NC(=O)c2nccnc2C(=O)O)cc1` [C00007 R=4-OCH3, reference compound]: the MIC in the assay on Mtb H37Ra is at least 500 µg/mL.
`CN(C)c1ccc(NC(=O)c2cnc3ccccc3n2)cc1` [Compound 10]: the MIC in the assay with Mtb H37Ra, with M. smegmatis (MABA) and with M. aurum (MABA) was at least 500 µg/mL in each case. Besides, in the assay with HepG2 cell line, the IC50 is above 250 µM.
Turning to `COc1ccc(OC)c(CNC(=O)c2cnc3ccccc3n2)c1` [Compound 18], the MIC in the assay on Mtb H37Ra is 3.91 µg/mL and 12.1 µM; with M. smegmatis, at least 500 µg/mL; with M. aurum, at least 500 µg/mL. The 50% inhibitory concentration (IC50) with HepG2 cell line is above 1000 µM.
Consider `O=C(NCc1ccccc1Cl)c1cnc2ccccc2n1` [Compound 25], for which the MIC in the assay with Mtb H37Ra was 15.6 µg/mL and 52.5 µM; in the assay with M. smegmatis it was at least 500 µg/mL; in the assay on M. aurum it was at least 500 µg/mL. Besides, the IC50 in the assay on HepG2 cell line was found to be 528 µM.
Consider `O=C(NCc1cccc(F)c1)c1cnc2ccccc2n1` [Compound 21], for which the “SI (selectivity index)” value in the assay with Mtb H37Ra turned out to be 8.92. Also, the minimal inhibitory concentration (MIC) in the assay on Mtb H37Ra was 7.81 µg/mL and 27.8 µM; in the assay with M. smegmatis (MABA), at least 500 µg/mL; with M. aurum (MABA), at least 500 µg/mL. Also, the IC50 in the assay with HepG2 cell line turned out to be 248 µM.
As for `O=C(O)c1nccnc1C(=O)Nc1cccc(C(F)(F)F)c1` [C00007 R=3-CF3, reference compound], the minimum inhibitory concentration (MIC) in the assay with Mtb H37Ra amounted to 250 µg/mL (≈ 803 µM).
Take `O=C(O)c1nccnc1C(=O)Nc1ccccc1` [C00007 R=H, reference compound]: the MIC in the assay with Mtb H37Ra is at least 500 µg/mL.
